Results reported in patent publication US9126957B2, “Selective glycosidase inhibitors and uses thereof” (MERCK SHARP & DOHME CORP., priority 2011, dated 2015).

These molecules were tested against human O-GlcNAcase (Homo sapiens (Human), UniProt O60502) (assay: Fluorescence-based hOGA assay for determination of KI values for inhibition of O-GlcNAcase activity). Details: purified human O-GlcNAcase, 4-Methylumbelliferyl N-acetyl-β-D-glucosaminide substrate, pH 7.0, Cheng-Prusoff.
Format: biochemical
Experimental: Assay for determination of KI values for inhibition of O-GlcNAcase activity Experimental procedure for kinetic analyses
Enzymatic reactions are carried out in a reaction containing 50 mM NaH2PO4, 100 mM NaCl and 0.1% BSA (pH 7.0) using 2 mM 4-Methylumbelliferyl N-acetyl-β-D-glucosaminide dihydrate (Sigma M2133) dissolved in ddH2O, as a substrate. The amount of purified human O-GlcNAcase enzyme used in the reaction is 0.7 nM. Test compound of varying concentrations is added to the enzyme prior to initiation of the reaction. The reaction is performed at room temperature in a 96-well plate and is initiated with the addition of substrate. The production of fluorescent product is measured every 60 sec for 45 min with a Tecan Infinite M200 plate-reader with excitation at 355 nm and emission detected at […], with 4-Methylumbelliferone (Sigma M1381) used to produce a standard curve. The slope of product production is determined for each concentration of compound tested and plotted, using standard curve fitting algorithms for sigmoidal dose response curves. The values for a four parameter logistic curve fit of the data are determined.
KI values are determined using the Cheng-Prusoff equation; the Km of O-GlcNacase for substrate is 0.2 mM.

human O-GlcNAcase, sequence (O60502 whole entry): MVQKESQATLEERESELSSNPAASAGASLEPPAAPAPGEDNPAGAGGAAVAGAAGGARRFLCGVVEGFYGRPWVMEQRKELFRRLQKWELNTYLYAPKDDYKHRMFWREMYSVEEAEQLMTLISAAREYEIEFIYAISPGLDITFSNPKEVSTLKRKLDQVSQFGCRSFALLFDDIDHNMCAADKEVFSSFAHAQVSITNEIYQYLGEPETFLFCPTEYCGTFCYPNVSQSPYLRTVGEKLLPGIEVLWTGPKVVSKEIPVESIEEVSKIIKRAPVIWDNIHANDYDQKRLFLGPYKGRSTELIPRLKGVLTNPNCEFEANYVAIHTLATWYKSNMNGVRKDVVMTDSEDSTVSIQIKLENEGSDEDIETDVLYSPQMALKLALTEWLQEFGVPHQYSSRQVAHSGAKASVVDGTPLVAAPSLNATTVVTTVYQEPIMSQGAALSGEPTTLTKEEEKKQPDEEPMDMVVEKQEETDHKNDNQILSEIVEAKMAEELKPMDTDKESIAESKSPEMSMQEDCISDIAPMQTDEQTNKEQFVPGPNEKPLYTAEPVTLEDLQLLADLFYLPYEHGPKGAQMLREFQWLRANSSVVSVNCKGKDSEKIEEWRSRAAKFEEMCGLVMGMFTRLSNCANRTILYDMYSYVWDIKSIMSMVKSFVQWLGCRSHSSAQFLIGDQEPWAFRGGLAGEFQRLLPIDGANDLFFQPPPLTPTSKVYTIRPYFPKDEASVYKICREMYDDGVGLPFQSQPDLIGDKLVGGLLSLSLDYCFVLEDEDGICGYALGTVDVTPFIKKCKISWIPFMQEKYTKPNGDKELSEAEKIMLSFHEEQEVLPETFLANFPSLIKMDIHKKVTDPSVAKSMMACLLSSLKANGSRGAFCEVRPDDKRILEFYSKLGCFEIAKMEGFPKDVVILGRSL

Compound	Ki [nM]
C[C@@H](O)[C@@H]1C[C@H]2OC(N(C)C)=N[C@H]2[C@H](O)[C@H]1O (single isomer, unassigned) [Example 4]	437
C[C@@H](O)[C@H]1C[C@@H]2OC(N(C)C)=N[C@@H]2[C@@H](O)[C@@H]1O [Example 1A, (3aR,4R,5R,6R,7aS)-2-(Dimethylamino)-6-((R)-1-hydroxyethyl)-3a,4,5,6,7,7a-hexahydrobenzo[d]oxazole-4,5-diol]	4.5
CN(C)C1=N[C@@H]2[C@@H](O)[C@H](O)[C@@H](C(C)(C)O)C[C@@H]2O1 [Example 3, (3aR,4R,5R,6S,7aS)-2-(Dimethylamino)-6-(2-hydroxypropan-2-yl)-3a,4,5,6,7,7a-hexahydro-benzo[d]oxazole-4,5-diol]	54
CCCNC1=N[C@@H]2[C@@H](O)[C@H](O)[C@@H]([C@H](C)O)C[C@@H]2O1 [Example 5, (3aR,4R,5R,6R,7aS)-6-((S)-1-hydroxyethyl)-2-(propylamino)-3a,4,5,6,7,7a-hexahydrobenzo[d] oxazole-4,5-diol]	7.1
CNC1=N[C@@H]2[C@@H](O)[C@H](O)[C@@H]([C@H](C)O)C[C@@H]2O1 [Example 6, (3aR,4R,5R,6R,7aS)-6-((S)-1-hydroxyethyl)-2-(methylamino)-3a,4,5,6,7,7a-hexahydrobenzo[d] oxazole-4,5-diol]	0.26
CCNC1=N[C@@H]2[C@@H](O)[C@H](O)[C@@H](C(C)(C)O)C[C@@H]2O1 [Example 7, (3aR,4R,5R, 6S,7aS)-2-(ethylamino)-6-(2-hydroxy-propan-2-yl)-3a,4,5,6,7,7a-hexahydro-benzo[d] oxazole-4,5-diol]	93

Continued, values first:

Ki [nM]	Compound
0.26	C[C@H](O)[C@H]1C[C@@H]2OC(N(C)C)=N[C@@H]2[C@@H](O)[C@@H]1O [Example 2, (3aR,4R,5R,6R,7aS)-2-(Dimethylamino)-6-((S)-1-hydroxyethyl)-3a,4,5,6,7,7a-hexahydro-benzo[d]oxazole-4,5-diol]
1670	CCCNC1=N[C@@H]2[C@@H](O)[C@H](O)[C@@H](C(C)(C)O)C[C@@H]2O1 [Example 8, (3aR,4R,5R, 6S,7aS)-6-(2-hydroxy-propan-2-yl)-2-(propylamino)-3a,4,5,6,7,7a-hexahydro-benzo[d] oxazole-4,5-diol]
14	C[C@@H](O)[C@H]1C[C@@H]2SC(N(C)C)=N[C@@H]2[C@@H](O)[C@@H]1O [Example 9]
0.14	C[C@H](O)[C@H]1C[C@@H]2SC(N(C)C)=N[C@@H]2[C@@H](O)[C@@H]1O [Example 10, (3aR,4R,5R,6R,7aS)-2-(dimethylamino)-6-((S)-1-hydroxyethyl)-3a,4,5,6,7,7a-hexahydrobenzo[d]thiazole-4,5-diol]
